# Reference: patent US9181186B2, “Aromatic ring compound” (TAKEDA PHARMACEUTICAL COMPANY LIMITED, priority 2012, dated 2015)
# Molecular target: T1, human GPR40 (Homo sapiens, UniProt O14842)
# T1 construct: expressed in transfected cells
# Assay: Evaluation of human GPR40 agonist activity with increase in intracellular Ca2+ concentration as an index (FLIPR Tetra)
# Type: cell-based
# Details: test compound 1 μM; CHO(dhfr−) cells stably expressing human GPR40; 100% = 1 μM WO2009/048527 Example 99.2, 0% = DMSO
# Method: Evaluation of Human GPR40 Agonist Activity with Increase in Intracellular Ca^2+ Concentration as an Index
# CHO(dhfr−) cells that stably expressed human GPR40 were suspended in MEMα (Nikken Bio Medical Laboratory) containing 10% dialysis serum (GEMINI BIO-PRODUCTS), 10 mM HEPES (Invitrogen), 100 U/mL penicillin, 100 μg/mL streptomycin (Invitrogen), and plated on a 384 well black/clear cell culture plate at 10,000 cells/well. After culture overnight in a CO2 incubator at 37° C., the culture supernatant was removed, and a loading buffer [dye attached to Calcium 5 Assay Kit (Molecular Devices) was dissolved in an assay buffer (20 mM HEPES, 0.2% fatty acid-free BSA (Sigma-Aldrich), 2.5 mM probenecid (DOJINDO)-containing HBSS (Invitrogen)) added with 0.025% Cremophor EL (DOJINDO)] was added at 37.5 μL/well. After incubation in a CO2 incubator at 37° C. for 1 hr, the cells were stood at room temperature for 15 min, an assay buffer containing the test compound at a final concentration of 1 μM was added at 12.5 μL/well in FLIPR Tetra (Molecular Devices), and the fluorescence amount was successively measured. Human GPR40 agonist activity calculated using an increase in the intracellular Ca^2+ concentration as an index, wherein the activity of 1 μM of the compound described in WO 2009/048527 (WO2009/048527 Example 99.2) was 100%, and the activity when DMSO was added instead of the test compound was 0%.
# T1 sequence (O14842 whole entry): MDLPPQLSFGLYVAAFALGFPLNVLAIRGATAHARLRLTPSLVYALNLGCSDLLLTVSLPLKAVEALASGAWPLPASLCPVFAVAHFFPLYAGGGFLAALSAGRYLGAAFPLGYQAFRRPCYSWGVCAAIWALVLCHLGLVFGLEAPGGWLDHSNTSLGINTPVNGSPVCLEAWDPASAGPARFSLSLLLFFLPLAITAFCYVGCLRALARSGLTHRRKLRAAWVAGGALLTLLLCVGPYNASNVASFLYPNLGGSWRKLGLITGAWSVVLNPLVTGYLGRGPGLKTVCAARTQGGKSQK
Human GPR40 agonist activity (increase in intracellular Ca2+ concentration) [%],activation at 1 µM [%],SMILES
106,,"COc1ccc(F)c(-c2ccc(COc3cccc(C(CC(=O)O)C4CC4)c3)nc2CC(C)(C)C)c1 (single isomer, unassigned) [Example 7, 3-cyclopropyl-3-(3-((6-(2,2-dimethylpropyl)-5-(2-fluoro-5-methoxyphenyl)pyridin-2-yl)methoxy)phenyl)propanoic acid]"
,106,"COc1ccc(F)c(-c2ccc(COc3cc(C(CC(=O)O)C4CC4)ncn3)nc2CC(C)(C)C)c1 (stereo not shown) [Example 8, 3-cyclopropyl-3-(6-((6-(2,2-dimethylpropyl)-5-(2-fluoro-5-methoxyphenyl)pyridin-2-yl)methoxy)pyrimidin-4-yl)propanoic acid]"
,100,"COc1ccc(F)c(-c2ccc(COc3cccc(C(CC(=O)O)C4CC4)c3)nc2CC(C)(C)C)c1 (stereo not shown) [Example 11, 3-cyclopropyl-3-(3-((6-(2,2-dimethylpropyl)-5-(2-fluoro-5-methoxyphenyl)pyridin-2-yl)methoxy)phenyl)propanoic acid]"
,112,"COc1ccc(F)c(-c2ccc(COc3cc(C(CC(=O)O)C4CC4)ccc3OC)nc2CC(C)(C)C)c1 (stereo not shown) [Example 12, 3-cyclopropyl-3-(3-((6-(2,2-dimethylpropyl)-5-(2-fluoro-5-methoxyphenyl)pyridin-2-yl)methoxy)-4-methoxyphenyl)propanoic acid]"
,110,"COc1ccc(F)c(-c2ccc(COc3cc(CCC(=O)O)ccc3C)nc2CC(C)(C)C)c1 [Example 13, 3-(3-((6-(2,2-dimethylpropyl)-5-(2-fluoro-5-methoxyphenyl)pyridin-2-yl)methoxy)-4-methylphenyl)propanoic acid]"
,103,"COc1cc(CCC(=O)O)cc(OCc2ccc(-c3cc(OC)ccc3F)c(CC(C)(C)C)n2)c1 [Example 15, 3-(3-((6-(2,2-dimethylpropyl)-5-(2-fluoro-5-methoxyphenyl)pyridin-2-yl)methoxy)-5-methoxyphenyl)propanoic acid]"
,109,"COc1ccc(F)c(-c2ccc(COc3cc(F)cc(CCC(=O)O)c3)nc2CC(C)(C)C)c1 [Example 16, 3-(3-((6-(2,2-dimethylpropyl)-5-(2-fluoro-5-methoxyphenyl)pyridin-2-yl)methoxy)-5-fluorophenyl)propanoic acid]"
,109,"COc1ccc(F)c(-c2ccc(COc3ccc(C)c(CCC(=O)O)c3)nc2CC(C)(C)C)c1 [Example 17, 3-(5-((6-(2,2-dimethylpropyl)-5-(2-fluoro-5-methoxyphenyl)pyridin-2-yl)methoxy)-2-methylphenyl)propanoic acid]"
,109,"COc1ccc(F)c(-c2ccc(COc3ccc(OC)c(CCC(=O)O)c3)nc2CC(C)(C)C)c1 [Example 18, 3-(5-((6-(2,2-dimethylpropyl)-5-(2-fluoro-5-methoxyphenyl)pyridin-2-yl)methoxy)-2-methoxyphenyl)propanoic acid]"
,109,"COc1ccc(F)c(-c2ccc(COc3ccc(F)c(CCC(=O)O)c3)nc2CC(C)(C)C)c1 [Example 19, 3-(5-((6-(2,2-dimethylpropyl)-5-(2-fluoro-5-methoxyphenyl)pyridin-2-yl)methoxy)-2-fluorophenyl)propanoic acid]"
,103,"COc1ccc(F)c(-c2ccc(COc3cccc(CCC(=O)O)c3F)nc2CC(C)(C)C)c1 [Example 22, 3-(3-((6-(2,2-dimethylpropyl)-5-(2-fluoro-5-methoxyphenyl)pyridin-2-yl)methoxy)-2-fluorophenyl)propanoic acid]"
,99,"COc1ccc(F)c(-c2ccc(COc3cc(C)cc(CCC(=O)O)c3)nc2CC(C)(C)C)c1 [Example 23, Sodium 3-(3-((6-(2,2-dimethylpropyl)-5-(2-fluoro-5-methoxyphenyl)pyridin-2-yl)methoxy)-5-methylphenyl)propanoate]"
,103,"COc1ccc(F)c(-c2ccc(COc3cccc(CCC(=O)O)c3)nc2CC(C)(C)C)c1 [Example 29, 3-(3-((6-(2,2-dimethylpropyl)-5-(2-fluoro-5-methoxyphenyl)pyridin-2-yl)methoxy)phenyl)propanoic acid]"
,112,"COc1ccc(F)c(-c2ccc(COc3cc(C(CC(=O)O)C4CC4)ccn3)nc2CC(C)(C)C)c1 (stereo not shown) [Example 30, 3-cyclopropyl-3-(2-((6-(2,2-dimethylpropyl)-5-(2-fluoro-5-methoxyphenyl)pyridin-2-yl)methoxy)pyridin-4-yl)propanoic acid]"
,118,"COc1ccc(F)c(-c2ncc(COc3cccc(C(CC(=O)O)C4CC4)c3)cc2CC(C)(C)C)c1 (stereo not shown) [Example 34, 3-cyclopropyl-3-(3-((5-(2,2-dimethylpropyl)-6-(2-fluoro-5-methoxyphenyl)pyridin-3-yl)methoxy)phenyl)propanoic acid]"
,101,"COc1ccc(F)c(-c2ncc(COc3cc(C(CC(=O)O)C4CC4)ncn3)cc2CC(C)(C)C)c1 (stereo not shown) [Example 35, 3-cyclopropyl-3-(6-((5-(2,2-dimethylpropyl)-6-(2-fluoro-5-methoxyphenyl)pyridin-3-yl)methoxy)pyrimidin-4-yl)propanoic acid]"
,106,"COc1ccc(F)c(-c2ncc(COc3cc(C(CC(=O)O)C4CC4)ncn3)cc2OCC(C)(C)C)c1 (stereo not shown) [Example 36, 3-cyclopropyl-3-(6-((5-(2,2-dimethylpropoxy)-6-(2-fluoro-5-methoxyphenyl)pyridin-3-yl)methoxy)pyrimidin-4-yl)propanoic acid]"
,101,"COc1ccc(F)c(-c2ncc(COc3cc(C(CC(=O)O)C4CC4)ncn3)cc2OCCC(F)(F)F)c1 (stereo not shown) [Example 37, 3-cyclopropyl-3-(6-((6-(2-fluoro-5-methoxyphenyl)-5-(3,3,3-trifluoropropoxy)pyridin-3-yl)methoxy)pyrimidin-4-yl)propanoic acid]"
,113,"COc1ccc(F)c(-c2ncc(COc3cc(C(CC(=O)O)C4CC4)ccn3)cc2CC(C)(C)C)c1 (stereo not shown) [Example 40, 3-cyclopropyl-3-(2-((5-(2,2-dimethylpropyl)-6-(2-fluoro-5-methoxyphenyl)pyridin-3-yl)methoxy)pyridin-4-yl)propanoic acid]"
,115,"COc1ccc(F)c(-c2ccc(COc3cc(C(CC(=O)O)C4CC4)c(F)cn3)nc2CC(C)(C)C)c1 (stereo not shown) [Example 42, 3-cyclopropyl-3-(5-fluoro-2-((5-(2-fluoro-5-methoxyphenyl)-6-neopentylpyridin-2-yl)methoxy)pyridin-4-yl)propanoic acid]"
,115,"COc1ccc(F)c(-c2ncc(COc3cc(C(CC(=O)O)C4CC4)c(F)cn3)cc2CC2(C#N)CCCC2)c1 (stereo not shown) [Example 43, 3-(2-((5-((1-cyanocyclopentyl)methyl)-6-(2-fluoro-5-methoxyphenyl)pyridin-3-yl)methoxy)-5-fluoropyridin-4-yl)-3-cyclopropylpropanoic acid]"
107,,"COc1ccc(F)c(-c2ncc(COc3cc(C(CC(=O)O)C4CC4)c(F)cn3)cc2CC2(C#N)CCCC2)c1 (stereo not shown) [Example 44, 3-(2-((5-((1-cyanocyclopentyl)methyl)-6-(2-fluoro-5-methoxyphenyl)pyridin-3-yl)methoxy)-5-fluoropyridin-4-yl)-3-cyclopropylpropanoic acid]"

SMILES,Human GPR40 agonist activity (increase in intracellular Ca2+ concentration) [%],activation at 1 µM [%]
"COc1ccc(F)c(-c2ccc(COc3cccc(C(CC(=O)O)C4CC4)c3)nc2OCC(C)C)c1 (stereo not shown) [Example 1, 3-cyclopropyl-3-(3-((5-(2-fluoro-5-methoxyphenyl)-6-isobutoxypyridin-2-yl)methoxy)phenyl)propanoic acid]",,100
"COc1ccc(F)c(-c2ccc(COc3cc(C(CC(=O)O)C4CC4)ncn3)nc2OCC(C)C)c1 (stereo not shown) [Example 2, 3-cyclopropyl-3-(6-((5-(2-fluoro-5-methoxyphenyl)-6-isobutoxypyridin-2-yl)methoxy)pyrimidin-4-yl)propanoic acid]",,107
"COc1ccc(F)c(-c2cnc(COc3cc(C(CC(=O)O)C4CC4)ncn3)cc2OCC(C)C)c1 (stereo not shown) [Example 6, 3-cyclopropyl-3-(6-((5-(2-fluoro-5-methoxyphenyl)-4-isobutoxypyridin-2-yl)methoxy)pyrimidin-4-yl)propanoic acid]",,98
"COc1ccc(F)c(-c2ncc(COc3cccc(C(CC(=O)O)C4CC4)c3)cc2OCC(C)C)c1 (stereo not shown) [Example 31, 3-cyclopropyl-3-(3-((6-(2-fluoro-5-methoxyphenyl)-5-isobutoxypyridin-3-yl)methoxy)phenyl)propanoic acid]",,104
"COc1ccc(F)c(-c2ncc(COc3cc(C(CC(=O)O)C4CC4)ncn3)cc2OCC(C)C)c1 (stereo not shown) [Example 32, 3-cyclopropyl-3-(6-((6-(2-fluoro-5-methoxyphenyl)-5-isobutoxypyridin-3-yl)methoxy)pyrimidin-4-yl)propanoic acid]",,104
"COc1ccc(F)c(-c2cnc(COc3cc(C(CC(=O)O)C4CC4)ncn3)nc2OCC(C)C)c1 (stereo not shown) [Example 41, 3-cyclopropyl-3-(6-((5-(2-fluoro-5-methoxyphenyl)-4-isobutoxypyrimidin-2-yl)methoxy)pyrimidin-4-yl)propanoic acid]",,110
